Measured values: paper PMC6753678, “Fueling Open Innovation for Malaria Transmission-Blocking Drugs: Hundreds of Molecules Targeting Early Parasite Mosquito Stages” (Frontiers in Microbiology, 2019)
Like-named read-outs stand apart in the source and are kept apart here.

Assays:
[1] = system: 3D7-strain P. falciparum asexual parasites; assay: P. falciparum asexual growth inhibition assay (Pf GIA); assay type: cell-based, Plasmodium falciparum; settings: dose response confirmation; read-out: Pf asexual growth inhibition assays IC50
In short: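 LDH readout: absorbance at 650 nm after 10 min at room temperature with lactate/APAD/NBT/diaphorase mix on thawed plates. Cultures (0.25% parasitemia, 2% hematocrit) were treated 72 h at 37°C in low-oxygen gas. Inhibition was normalised to 50 μM chloroquine and DMSO; n=3 biological replicates.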

HepG2 cells = assay: HepG2 cytotoxicity assay; settings: for IC50: read-out: HepG2 cytotoxicity assay IC50, dose response confirmation; for Pb ODA (this manuscript) HepG2 cytoxicity: HepG2 cytotoxicity listed with the Pb ODA data set (this manuscript)
In short: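 Percent inhibition derived from fluorescent viability readout, normalised to DMSO (negative) and 50 μM doxorubicin (positive). Compound incubation lasted 48 h at 37°C, 5% CO2, with 2,500 HepG2 cells/well in MEM plus 10% FBS and 1% NEAA.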

[2] = system: P. berghei ookinete development; settings: for % inhibition, Replicate A / % inhibition, Replicate B: primary screen at 1 μM
[3] = HepG2 values of the three screens unified
[4] = read-out: Pb ODA IC50, this manuscript
[5] = read-out: Pb Ookinete development assay IC50, dose response confirmation
[6] = read-out: Pb ODA (this manuscript) IC50, P. berghei ookinete development assay, this manuscript
[7] = unified HepG2 value across the three screens

Structure (SMILES)	IC50 [1] [µM]	HepG2 cytoxicity (Pb ODA, this manuscript) (HepG2 cells) [µM]	Unified cytotox (HepG2 cells; [3]) [µM]	IC50 (HepG2 cells) [µM]	Is compound selective in assay? Pb ODA active? ([2]; 1: YES, 0: NO)	% inhibition, Replicate A [2] [%]	% inhibition, Replicate B [2] [%]	IC50 [2, 4] [µM]	IC50 [2, 5] [µM]	Pb ODA (this manuscript) HepG2 cytoxicity (HepG2 cells) [µM]	Is compound selective in assay? Pb ODA active? [2]	IC50 [2, 6] [µM]	Unified cytotox (HepG2 cells; [7]) [µM]
COc1ccc2nccc([C@@H](O)CN3CCC(NCCOc4cc(C(F)(F)F)ccc4F)CC3)c2c1.O=C(O)C(=O)O [TCMDC-140658]	0.035	0.00343	0.00343	0.00343	0 (0: NO)	63.44	46.33	3.21	3.21				
COc1ccc2ncc(F)c(CCN3CCC(NCc4cc(Br)c5c(c4)OCCO5)CC3)c2n1.Cl [TCMDC-136211]	0.239			14.5		36.10	50.60		3.4	14.45	0 (key: 1: YES; 0: NO)	3.39	
OCCc1ccc(Nc2nccc(-c3nnc4ccccn34)n2)cc1 [TCMDC-138924]	< 0.0002			100	1 (1: YES)	70.77	81.57	0.4	0.395				100.00
CC(Cl)=CCc1c(C)[nH]c2c(ccc3ccccc32)c1=O [TCMDC-124085]	0.276			100		85.49	96.24		0.328	100.00	1 (key: 1: YES; 0: NO)	0.33	
Cc1[nH]c(C)c(-c2ccc(-c3ccc(OC(F)(F)F)cc3)nc2)c(=O)c1Cl [TCMDC-135677]	0.397	23.71	23.71	23.7	1 (1: YES)	103.64	93.64	0.27	0.265				
COc1ccc2ncc(F)c(NC(=O)C3CCC(NCc4cc5c(F)cccc5[nH]4)CC3)c2n1.Cl (centres unmarked) [TCMDC-136354]	0.475			3.63		86.49	82.69		0.252	3.63	1 (key: 1: YES; 0: NO)	0.25	
N#Cc1ccc(CN2CCC(Oc3ccc(NC(=O)c4cccs4)cc3Cl)CC2)cc1.O=C(O)C(F)(F)F [TCMDC-133955]	0.6			36.3		56.20	46.08		4.36	36.31	0 (key: 1: YES; 0: NO)	4.36	
CCc1c(C)nc(-n2nc(C)cc2NC(=O)C(CC)c2ccccc2)[nH]c1=O (centres unmarked) [TCMDC-124935]	0.558			0.95		47.36	55.92		8.71	0.95	0 (key: 1: YES; 0: NO)	8.71	
Nc1nc(N)c2c(ccc3c2cnn3Cc2cccnc2)n1 [TCMDC-131932]	0.0013			0.055		68.89	58.00		2.39	0.055	0 (key: 1: YES; 0: NO)	2.39	
CC(C)CCN1CCC(Oc2ccc(NC(=O)c3cccs3)cc2Cl)CC1.O=C(O)C(F)(F)F [TCMDC-133974]	0.66			21.4		38.26	57.89		1.45	21.38	1 (key: 1: YES; 0: NO)	1.45	
COc1cc(F)c2ncc(Cl)c(CCN3CCC(NCc4ccc5c(n4)NC(=O)CO5)CC3)c2c1.Cl [TCMDC-135621]	2.59			27.2		69.33	64.08		1.27	27.23	1 (key: 1: YES; 0: NO)		
CCn1c(CN2CCC(C)CC2)nc2cc(NC(=O)c3cccs3)ccc21 [TCMDC-124730]	0.182			75.9	1 (1: YES)	78.95	101.97		0.35				75.86
CN1CCN(CC(=O)Nc2ccc(-c3ccc(-c4nc5ccccc5[nH]4)cc3)cc2)CC1 [TCMDC-136979]	1.11			21.6	0 (0: NO)	58.34	20.87	4.19	4.19				21.63
Cc1ccccc1Cn1ccc2c3c(N)nc(N)nc3ccc21 [TCMDC-137812]	< 0.0003	0.00828	0.00828	0.00828	0 (0: NO)	41.40	62.61	0.43	0.429				
Cc1[nH]c(C)c(-c2ccc(OCCCc3ccccn3)cc2)c(=O)c1Br.Cl [TCMDC-135795]	0.00655			0.17		72.29	89.65		0.594	0.17	0 (key: 1: YES; 0: NO)	0.59	
Cl.O=C1CSc2ccc(CNC3CCN(CCc4c(Cl)cnc5ccc(F)cc45)CC3)nc2N1 [TCMDC-141960]	0.207	38.90	38.90	38.9	1 (1: YES)	68.86	55.86	3.04	3.04				
Cc1ccc(Nc2nc(N/N=C/c3cccc(O)c3)nc(Nc3ccc([N+](=O)[O-])cc3)n2)cc1C [TCMDC-124125]	1.81			100	1 (1: YES)	68.98	54.76	3.83	3.83				100.00
COc1cc(OC)nc(C(Sc2ccc(NC(=O)c3cccs3)cc2)c2ccccc2)n1 (centres unmarked) [TCMDC-124257]	0.184			100	1 (1: YES)	29.98	55.99	0.97	0.973				100.00
Cc1[nH]c(C)c(-c2ccc(-c3ccc(OCC(F)(F)F)cc3)nc2)c(=O)c1Cl [TCMDC-132306]	0.655		100.00	100	1 (1: YES)	58.32	97.73	1.24	1.24				
CS(=O)(=O)Cc1cccc(Nc2ncc(Cl)c(Nc3cccnc3C(N)=O)n2)c1.Cl [TCMDC-134166]	0.273			4.79		102.49	90.53		1.21	4.79	0 (key: 1: YES; 0: NO)	1.21	
C=CCn1ccc2c3c(N)nc(N)nc3ccc21 [TCMDC-137995]	0.024	1.00	1.00	1	0 (0: NO)	75.02	69.00	2.48	2.48				
COc1ccc(CCc2ccc(-c3c(C)[nH]c(C)c(Cl)c3=O)cc2)cc1OC [TCMDC-135789]	0.119		100.00	100	1 (1: YES)	97.42	111.57	0.28	0.277				
Cc1nc(C)c(-c2ccc(Oc3ccc(OC(F)(F)F)cc3)cc2)c(OC(=O)c2ccccc2)c1Cl [TCMDC-137380]	0.173			37.6		56.36	103.63		0.86	37.58	1 (key: 1: YES; 0: NO)		
CCN(CC)c1nc(N)c2c(N)nc3c(c2c1C#N)C(=O)CN3Cc1ccccc1 [TCMDC-125024]	0.038			100	1 (1: YES)	101.60	105.52	0.62	0.618				100.00
